# In patent US10975069B2, “Sigma-2 receptor ligand drug conjugates as antitumor compounds, methods of synthesis and uses thereof” (priority 2014, dated 2021):
# Where two headings read alike, the source gives them in different places.
# Legend:
# [1] = system: all human and murine pancreatic cancer cell lines tested; assay: Viability assay on panel of pancreatic cancer cell lines; assay type: cell-based
# Protocol: In these experiments, viability assays after 24 hours treatment of human and murine pancreatic cancer cell lines and synovial sarcoma cell lines with SW V-49s or its parent compounds SV119 and Erastin, both singly and in combination, were performed. […] In comparison.
# Cytotoxicity of the drugs was evaluated by CELLTITER-GLO®. Luminescent cell viability assay (Promega, Madison, Wis.). Pancreatic cell lines were plated at a density of 2×10^4/well in white 96 well, clear bottom plates for 24 hours prior to treatment. Drugs were dissolved in DMSO and serially diluted in culture medium to achieve the final concentration of DMSO less than 1%. Cells were then treated for 24 hours and 100 μl of the CELLTITER-GLO® reagent was added to each well. The contents of the plates were mixed using an orbital shaker and subsequently incubated for 10 minutes at room temperature. Luminescence signal was measured using a multi-mode microplate reader (BioTek instruments. Winooski, Vt.). Different drug concentrations were assayed in triplicate. To evaluate the efficacy of the drugs, IC50 of the compounds was calculated on a panel of human and mouse derived pancreatic cancer cell lines in vitro. Cells were treated for 24 hours with SW V-49s, SV119, Erastin, and an equimolar mixture of SV119 and Erastin, then CELLTITER-GLO® viability assay was performed.
# [2] = system: reactive oxygen species (ROS); assay: Reactive oxygen species (ROS) assay in AsPC-1 cells; assay type: cell-based, human; conditions: 8 μM; for increase in ROS: 30 min, compared to Erastin, SV119 or combination, FIG. 6; for ROS level compared to others: one hour, FIG. 11B
# Protocol: In FIG. 6, results are shown for reactive oxygen species (ROS) assays of Aspc-1 treated with 8 μM 8 μM SW V-49s, 8 μM Erastin, 8 μM SV119, or 8 μM of an equimolar mixture of Erastin and SV119, or a positive control for 30 min. […] Parent compounds SV119 and Erastin, applied to cells either singly or in combination, had no effect at the same concentration.
# ROS measurement was performed using Total ROS/Superoxide Detection Kit (Enzo life sciences, Farmingdale, N.Y.) according to the manufacturer's instructions. Briefly. As PC-1 cells were seeded at a density of 2×10^4 cells/well in a black wall clear bottom 96-well plate for 24 hours. Compounds were dissolved in DMSO and diluted in culture medium to achieve a final concentration of DMSO less than 1%. AsPC-1 cells were treated with 8 μM of SV119, Erastin, and equimolar mixture of SV119 and Erastin. ROS assay was performed one hour after treatment. Cells were treated for one hour, then media was removed and 100 μL/well of ROS/Superoxide Detection Mix was added. Fluorescence signal was measured using a multi-mode microplate reader (Bio-Tek, Winooski, Vt.). The assay was performed in 6 replicates.
# [3] = molecular target: T1, cystine/glutamate antiporter (system Xc′) (Homo sapiens, UniProt Q9UPY5); assay: Cystine uptake assay in AsPC-1 cells; assay type: cell-based; conditions: FIG. 11A; for reduction in cystine uptake: same concentration of each compound (200 μM), DMSO control
# T1 construct: endogenous in cells; host or cells: AsPC-1
# T1 sequence (Q9UPY5 1-501): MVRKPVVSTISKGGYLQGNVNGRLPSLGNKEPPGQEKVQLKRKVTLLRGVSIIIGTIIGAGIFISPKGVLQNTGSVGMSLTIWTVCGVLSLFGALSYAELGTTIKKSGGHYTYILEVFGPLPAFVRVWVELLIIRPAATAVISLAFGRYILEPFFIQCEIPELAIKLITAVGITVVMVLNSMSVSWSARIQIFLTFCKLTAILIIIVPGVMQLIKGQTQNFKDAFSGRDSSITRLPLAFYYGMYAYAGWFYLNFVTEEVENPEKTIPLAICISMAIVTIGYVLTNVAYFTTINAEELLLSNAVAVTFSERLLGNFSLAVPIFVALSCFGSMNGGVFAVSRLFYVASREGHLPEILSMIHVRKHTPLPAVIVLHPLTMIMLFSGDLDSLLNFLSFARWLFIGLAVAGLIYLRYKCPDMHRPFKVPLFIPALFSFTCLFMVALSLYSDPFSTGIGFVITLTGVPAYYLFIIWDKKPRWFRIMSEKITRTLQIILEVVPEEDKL
# T1 sequence (P08195 1-529 partner): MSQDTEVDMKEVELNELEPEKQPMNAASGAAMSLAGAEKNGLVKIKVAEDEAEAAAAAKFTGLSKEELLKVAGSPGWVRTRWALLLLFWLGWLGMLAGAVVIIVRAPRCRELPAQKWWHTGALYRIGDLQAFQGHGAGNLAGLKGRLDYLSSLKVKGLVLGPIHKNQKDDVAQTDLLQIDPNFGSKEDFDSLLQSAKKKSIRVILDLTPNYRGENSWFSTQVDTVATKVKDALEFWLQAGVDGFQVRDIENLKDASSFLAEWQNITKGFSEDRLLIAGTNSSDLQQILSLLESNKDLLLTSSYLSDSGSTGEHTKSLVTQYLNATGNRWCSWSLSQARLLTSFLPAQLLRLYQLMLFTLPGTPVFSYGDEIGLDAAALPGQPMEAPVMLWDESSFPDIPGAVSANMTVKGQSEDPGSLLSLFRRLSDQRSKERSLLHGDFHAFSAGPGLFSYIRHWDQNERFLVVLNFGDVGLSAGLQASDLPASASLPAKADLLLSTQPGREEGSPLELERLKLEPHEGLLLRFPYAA
# Protocol: In these experiments, cystine uptake assay was performed as previously described (Dixon, S. J. et al. Cell 2012; 149: 1060-1072). Briefly, […] AsPC-1 cells/well were seeded overnight in 6 well plate. The next day, cells were washed twice in pre-warmed Na^+-free uptake buffer (137 mM choline chloride, 3 mM KCl, 1 mM CaCl2, 1 mM MgCl2, 5 mM D-glucose, 0.7 mM K2HPO4, and 10 mM HEPES [pH 7.4]). Subsequently, cells were incubated for 10 minutes at 37° C. in 1 ml of the uptake buffer to deplete cellular amino acids. The buffer was then replaced with 600 μl uptake buffer containing 200 μM of SW V-49s and 0.12 μCi (80-110 mCi/mmol) of L-[3,3′-^14C]-cystine (American Radiolabeled Chemicals. St Louis. Mo.) and incubated for 3 minutes at 37° C. After that, cells were washed three times with ice-cold uptake buffer and lysed in 500 μl of 0.1 M NaOH. To this lysate, 1 ml of scintillation fluid was added, and radioactive counts per minute were obtained by using a scintillation counter.
# To evaluate this mechanism. AsPC-1 cells were plated in 6 well plate for 24 hours. Cells were then treated with the same concentration of SV119, Erastin, combination of SV119 and Erastin. SW V-49s, and DMSO as a control. After that, a cystine uptake assay was performed. […] Erastin, and combination of SV 119 and Erastin, respectively (p=0.004, FIG. 11A).
SMILES,"IC50 ([1]; Pancreatic cancer cell, 24 h, 24 hours treatment, against all human and murine pancreatic cancer cell lines tested)","IC50 ([1]; Pancreatic cancer cell, 24 h, panel of human and mouse derived pancreatic cancer cell lines)",increase in ROS [2],ROS level compared to others [2],reduction in cystine uptake [3],"IC50 ([1]; 24 hours treatment, against all human and murine pancreatic cancer cell lines tested, read-out: IC50)","reduction of IC50 as compared to equimolar mixture of SV119 and Erastin ([1]; 24 hours, pancreatic cancer cell line panel)",fold less cysteine uptake [3]
CCOc1ccccc1-n1c(C(C)N2CCN(C(=O)COc3ccc(Cl)cc3)CC2)nc2ccccc2c1=O (centres unmarked) [Erastin],> 100 µM,> 150 µM,no effect,no increase,41%,–,–,–
"COc1ccc(C)cc1NC(=O)OC1C[C@H]2CCC[C@@H](C1)N2CCCCCCN (some centres unmarked) [SV119, reference compound]",–,–,no effect,no increase,25%,> 54 µM,–,–
CCOc1ccccc1-n1c(CN2CCN(C(=O)COc3ccc(CNCCCCCCN4C5CCCC4CC(OC(=O)Nc4cc(C)ccc4OC)C5)cc3)CC2)nc2ccccc2c1=O.O=C(O)C(=O)O (centres unmarked) [SW V-49s],–,–,50%,1.5 fold,85%,–,17-20 fold,3.7 fold
